Where two headings read alike, the source gives them in different places.
Legend:
[1] = test system: HCV replicon cells (replicon RNA level); assay: Cell-Based HCV Replicon Assay; details: Hepatitis C virus, 72 h
Procedure, shortened: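 Replicon cells at 5000/well received 10 serial 2-fold compound dilutions in 0.5% DMSO, 5% FBS, harvested day 3. Replicon RNA quantified by multiplex Taqman RT-PCR on NS5B versus GAPDH; EC50 and EC90 taken at ΔCT = 1 and 3.2 above baseline from sigmoid fits.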

[2] = target: T1, HCV NS5B polymerase (NS5BΔCT21, from HCV-Con 1 isolate, genotype 1b) (Hepatitis C virus genotype 1b, UniProt Q9WMX2); assay: HCV NS5B Polymerase Inhibition Assay; assay type: biochemical
T1 construct: A soluble C-terminal 21-amino acid truncated NS5B enzyme form; polyhistidine (C); made in house; host or cells: Escherichia coli
Procedure, shortened: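 His-tagged NS5BΔCT21 (30 or 150 nM) with 0.03 μM DCoH75 RNA template, 0.25 mM GAU, 0.1 μM ATP/GTP/UTP, 0.026 μM CTP plus [^33P]-CTP, pH 7.3, 2% DMSO; 2 h at 22° C. Incorporated radioactivity counted after filter capture. IC50 from 10-point 2-fold dilutions (top 200 μM to 1 μM) fitted to Hill equation.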

[3] = replicon RNA level by real time PCR (Taqman), cells harvested on day 3, read-out: EC50
[4] = NS5B polymerase inhibition, [33P]-CTP incorporation, 22° C. for 2 hours, read-out: IC50

SMILES | EC50 [1, 3] | IC50 [2, 4] | IC50 [2] | EC50 [1]
CN(C)S(=O)(=O)NC(=O)c1c(-c2ccc[nH]c2=O)c2c3occc3c(F)cc2n1Cc1cc2ccccc2nc1Cl [Compound 215] | < 500 nM | < 25 nM |  | 
CC(C)S(=O)(=O)NC(=O)c1c(-c2ccc[nH]c2=O)c2c3c(c(F)cc2n1Cc1cc2ccccc2nc1Cl)CCO3 [Compound 216] | < 500 nM | < 25 nM |  | 
CS(=O)(=O)NC(=O)c1c(-c2ccc[nH]c2=O)c2c3occc3c(F)cc2n1Cc1cc2cccc(Br)c2o1 [Compound 218] | > 1500 nM | < 25 nM |  | 
CC(C)(C)C(=O)OCn1cccc(-c2c(C(=O)O)n(Cc3cc4ccccc4nc3Cl)c3cc(F)c4ccoc4c23)c1=O [Compound 219] | < 500 nM | > 100 nM |  | 
O=C(NC1CC1)c1ccc(F)c(Cn2c(C(=O)NS(=O)(=O)C3CC3)c(-c3ccc[nH]c3=O)c3c4occc4c(F)cc32)c1 [Compound 221] | > 1500 nM | < 25 nM |  | 
O=C(NS(=O)(=O)C1CC1)c1c(-c2ccc[nH]c2=O)c2c3occc3c(F)cc2n1Cc1ccc2[nH]c(C(F)(F)F)nc2c1 [Compound 222] | < 500 nM | < 25 nM |  | 
Nc1ccccc1S(=O)(=O)NC(=O)c1c(-c2ccc[nH]c2=O)c2c3occc3c(F)cc2n1Cc1cc2ccccc2nc1Cl [Compound 223] | < 500 nM | < 25 nM |  | 
O=C(NS(=O)(=O)C1CC1)c1ccc(F)c(Cn2c(C(=O)NS(=O)(=O)C3CC3)c(-c3ccc[nH]c3=O)c3c4occc4c(F)cc32)c1 [Compound 225] | 500 to 1500 nM | < 25 nM |  | 
COc1cc(Cn2c(C(=O)OCOC(=O)C(C)(C)C)c(-c3cccn(COC(=O)C(C)(C)C)c3=O)c3c4occc4c(F)cc32)c(F)cn1 [Compound 226] | < 500 nM | > 100 nM |  | 
CC(C)(C)OC(=O)N(C(=O)OC(C)(C)C)c1cc(Cn2c(C(=O)NS(=O)(=O)C3CC3)c(-c3ccc[nH]c3=O)c3c4occc4c(F)cc32)c(F)cn1 [Compound 227] | < 500 nM | > 100 nM |  | 
CC(C)(C)C(=O)OCOC(=O)c1c(-c2cccn(COC(=O)C(C)(C)C)c2=O)c2c3occc3c(F)cc2n1Cc1cc(=O)n(COC(=O)C(C)(C)C)cc1F [Compound 228] | < 500 nM |  | > 100 nM | 
CC1(C)COc2c1ccc1c2c(-c2ccc[nH]c2=O)c(C(=O)O)n1Cc1cc2ccccc2nc1Cl [Compound 231] |  | < 25 nM |  | < 500 nM
